Data reported in patent US6849612B2, “Oligonucleotide modulation of cell adhesion” (ISIS Pharmaceuticals, Inc., priority 1993, dated 2005).
Strand notation (5' to 3'): a small letter for the sugar, then the base; units joined by * are phosphorothioate-linked, units joined directly phosphodiester-linked; [ ] holds rarer units or linkages, { } end groups; capitals alone tell only the bases. d = 2'-deoxy (DNA)

Experiments:
ICAM-1 [1] = assay: ELISA of ICAM-1 cell surface expression in oligonucleotide-pretreated, cytokine-stimulated HUVEC; type: cell-based, human; conditions: HUVEC, interleukin-1β; concentration not given
[2] = system: adherence of HL-60 cells to human umbilical vein endothelial cells; assay: Cell adherence assay: DMSO differentiated HL-60 cells to TNF treated HUVEC; type: cell-based; conditions: TNF-α stimulated HUVEC, Example 11; control 19%
Description: Target cells are grown as a monolayer in a multiwell plate, treated with oligonucleotide followed by cytokine. The adhering cells are then added to the monolayer cells and incubated for 30 to 60 minutes at 37° C. and washed to remove nonadhering cells. Cells adhering to the monolayer may be determined either by directly counting the adhering cells or prelabeling the cells with a radioisotope such as ^51Cr and quantitating the radioactivity associated with the monolayer as described. Dustin and Springer, J. Cell Biol. 1988, 107, 321-331. Antisense oligonucleotides may target either ICAM-1, VCAM-1 or ELAM-1 in the assay.
An example of the effects of antisense oligonucleotides targeting ICAM-1 mRNA on the adherence of DMSO differentiated HL-60 cells to tumor necrosis factor treated human umbilical vein endothelial cells is shown in FIG. 7. Human umbilical vein endothelial cells were grown to 80% confluence in 12 well plates. The cells were treated with 2 μM oligonucleotide diluted in Opti-MEM containing 8 μM DOTMA for 4 hours at 37° C. The medium was removed and replaced with fresh endothelial cell growth medium (EGM-UV) containing 2 μM of the indicated oligonucleotide and incubated 4 hours at 37° C. Tumor necrosis factor, 1 ng/ml, was added to cells as indicated and cells incubated for an additional 19 hours. The cells were washed once with EGM-UV and 1.6×10^6 HL-60 cells differentiated for 4 days with 1.3% DMSO added. The cells were allowed to attach for 1 hour at 37° C. and gently washed 4 times with Dulbecco's phosphate-buffered saline (D-PBS) warmed to 37° C. Adherent cells were detached from the monolayer by addition of 0.25 ml of cold (4EC) phosphate-buffered saline containing 5 mM EDTA and incubated on ice for 5 minutes. The number of cells removed by treatment with EDTA was determined by counting with a hemocytometer. Endothelial cells detached from the monolayer by EDTA treatment could easily be distinguished from HL-60 cells by morphological differences. In the absence of tumor necrosis factor, 3% of the HL-60 cells bound to the endothelial cells. Treatment of the endothelial cell monolayer with 1 ng/ml tumor necrosis factor increased the number of adhering cells to 59% of total cells added (FIG. 7).
Human umbilical vein endothelial (HUVEC) cells were grown and treated with oligonucleotides as in Example 4. Cells were treated with either ISIS 1939, ISIS 1940, or the control oligonucleotide ISIS 1821 for 4 hours, then stimulated with TNF-α for 20 hours. Basal HUVEC minimally bound HL-60 cells, while TNF-stimulated HUVEC bound 19% of the total cells added. Pretreatment of the HUVEC monolayer with 0.3 ìM ISIS 1939 reduced the adherence of HL-60 cells to basal levels, as shown in FIG. 11.

ICAM-1 [3] = assay: ELISA screening for ICAM-1 expression in interleukin-1β-stimulated cells (HUVEC and A549); type: cell-based, human; conditions: interleukin-1β-stimulated cells, two cell lines (HUVEC, A549)
[4] = system: complementary DNA sequences (ICAM-1 target sites); assay: Tm of oligonucleotide hybridized to complementary DNA; type: binding, human; conditions: 4 μM each strand, 100 mM Na+, 10 mM phosphate, 0.1 mM EDTA, pH 7.0; phosphorothioate vs complementary phosphodiester DNA
From the text: The antisense oligonucleotides (synthesized as phosphorothioates) were hybridized to their complementary DNA sequences (synthesized as phosphodiesters). […] Tm's and free energies of duplex formation were obtained from fits of data to a two-state model with linear sloping baselines ([…]. and D. H. […] Results are averages of at least three experiments.

ICAM-1 [5] = assay: Immunoprecipitation of 35S-labelled ICAM-1 from A549 cells; type: cell-based, human; conditions: 1 μM oligonucleotide, interleukin-1β
Description: The specificity of the antisense oligonucleotides ISIS 1570 and ISIS 1939 for ICAM-1 was evaluated by immunoprecipitation of ^35S-labelled proteins. A549 cells were grown to confluence in 25 cm^2 tissue culture flasks and treated with antisense oligonucleotides as described in Example 4. The cells were stimulated with interleukin-1β for 14 hours, washed with methionine-free DMEM plus 10% dialyzed fetal calf serum, and incubated for 1 hour in methionine-free medium containing 10% dialyzed fetal calf serum, 1 μM oligonucleotide and interleukin-1β as indicated. ^35S-Methionine/cysteine mixture (Tran^35S-label, purchased from ICN, Costa Mesa, Calif.) was added to the cells to an activity of 100 μCi/ml and the cells were incubated an additional 2 hours. Cellular proteins were extracted by incubation with 50 mM Tris-HCl pH 8.0, 150 mM NaCl, 1.0% NP-40, 0.5% deoxycholate and 2 mM EDTA (0.5 ml per well) at 4° C. for 30 minutes. The extracts were clarified by centrifugation at 18,000×g for 20 minutes. The supernatants were preadsorbed with 200 μl protein G-Sepharose beads (Bethesda Research Labs, Bethesda Md.) for 2 hours at 4° C., divided equally and incubated with either 5 μg ICAM-1 monoclonal antibody (purchased from AMAC Inc., Westbrook Me.) or HLA-A, B antibody (W6/32, produced by murine hybridoma cells obtained from the American Type Culture Collection, Bethesda, Md.) for 15 hours at 4° C. Immune complexes were trapped by incubation with 200 μl of a 50% suspension of protein G-Sepharose (v/v) for 2 hours at 4° C., washed 5 times with lysis buffer and resolved on an SDS-polyacrylamide gel. Proteins were detected by autoradiography.

[6] = system: corneal allograft rejection; assay: Rat corneal allograft rejection (ACI donor to Lewis recipient); type: in vivo

Substance: ISIS 1558: P=O oligonucleotide, human ICAM-1 AUG Codon (64-81), SEQ ID NO 1, TGGGAGCCATAGCGAGGC (unmodified DNA)
- inhibition of ICAM-1 expression (ICAM-1 [1]): did not inhibit expression of ICAM-1

Substance: ISIS 1940: P=S, human ICAM-1 3′-Untranslated (2975-2994), polyadenylation signal, SEQ ID NO 16, TTGAGAAAGCTTTATTAACT (antisense dT*dT*dG*dA*dG*dA*dA*dA*dG*dC*dT*dT*dT*dA*dT*dT*dA*dA*dC*dT)
- percentage of HL-60 cells adhering [2]: 9%
- inhibition of ICAM-1 expression, relative activity in words (ICAM-1 [3]): did not inhibit ICAM-1 expression
- Tm [4]: < 50 °C
- ICAM-1 synthesis (ICAM-1 [5]): did not significantly reduce ICAM-1 synthesis

Substance: ISIS 9125: rat ICAM-1 antisense, AGGGCCACTGCTCGTCCACA, all 2′-deoxyphosphorothioate (SEQ ID NO: 86) (antisense dA*dG*dG*dG*dC*dC*dA*dC*dT*dG*dC*dT*dC*dG*dT*dC*dC*dA*dC*dA)
- corneal edema vs OPTISOL alone group ([6]; day 3 post-surgery): more corneal edema
- grading for cornea opacity and neovascularization, better than OPTISOL alone group ([6]; day 3 post-surgery): 50%
- average days to rejection ([6]; donor corneas incubated 24 hours in OPTISOL plus 400 μg/ml oligonucleotide, OPTISOL alone 4.80 days): 6.33 days
- range of days to rejection ([6]; donor corneas incubated 24 hours in OPTISOL plus oligonucleotide): 6 to 10 days
- increase of days to rejection ([6]; over the 24 hour OPTISOL incubation control group): 25%
